Experiment [1] deals with T1, Recombinant ROCK1 (amino acids 1-477) (Homo sapiens, UniProt Q13464).
T1 construct: Recombinant ROCK1 (amino acids 1-477); by word order, ROCK1 from Carna Biosciences
The experiment in a line: ROCK inhibition assay, LANCE Ultra TR-FRET kinase assay (ROCK1). The note with it: 1 μM ATP, 50 nM ULight-CREBtide substrate. The format is biochemical. How it is done: (§1) Kinase IC50 was determined through an in vitro assay based on LANCE Ultra TR-FRET (Time-Resolved Fluorescence Resonance Energy Transfer) homogeneous technologies method (Perkin Elmer). Recombinant ROCK1 (amino acids 1-477) and ROCK2 (amino acids 5-554) proteins were purchased from Carna Biosciences and SignalChem. Compound activities were measured by Envision and IC50s were calculated. The assays were performed in white LUMITRAC™ 200 96 well half-area microplates from Greiner Bio-One. The kinase reaction buffer consisted of 50 mM HEPES pH 7.5, 1 mM EGTA, 10 mM MgCl2, 2 mM DTT and 0.01% Tween-20. Kinases were incubated with 50 nM (ULight-CREBtide) substrate in the presence of 1 (ROCK1) or 4 (ROCK2) μM ATP. The kinase reaction was carried out for 1 hour before addition of a stopping buffer to a final of 10 mM EDTA and 0.6 nM of LANCE Ultra Europium anti-phospho-CREB (Ser133) antibody (PerkinElmer TRF0200) in LANCE detection buffer. All assay incubations were performed at room temperature, and the microplates were sealed with polyester film during that time. The reaction was incubated for 1 hour, and the signal was read in Envision in TR-FRET mode (excitation at 320 nm and emission at 615/665 nm).
(§2) As used herein, a way to describe potency of inhibitory activity (nM) is a value of inhibitory activity at 50% (IC50).

Experiment [2] has as its target T2, Recombinant ROCK2 (amino acids 5-554) (Homo sapiens, UniProt O75116).
T2 construct: ROCK2 (amino acids 5-554); by word order, ROCK2 from SignalChem
Description: ROCK inhibition assay, LANCE Ultra TR-FRET kinase assay (ROCK2). It counts as biochemical. The note with it: 4 μM ATP, 50 nM ULight-CREBtide substrate. Here is the method: as §1, §2

Usually pIC50 stands for the negative decadic logarithm of the IC50, by convention in mol/L.

pIC50: −log10 of the molar value.

T2 sequence (O75116 5-554): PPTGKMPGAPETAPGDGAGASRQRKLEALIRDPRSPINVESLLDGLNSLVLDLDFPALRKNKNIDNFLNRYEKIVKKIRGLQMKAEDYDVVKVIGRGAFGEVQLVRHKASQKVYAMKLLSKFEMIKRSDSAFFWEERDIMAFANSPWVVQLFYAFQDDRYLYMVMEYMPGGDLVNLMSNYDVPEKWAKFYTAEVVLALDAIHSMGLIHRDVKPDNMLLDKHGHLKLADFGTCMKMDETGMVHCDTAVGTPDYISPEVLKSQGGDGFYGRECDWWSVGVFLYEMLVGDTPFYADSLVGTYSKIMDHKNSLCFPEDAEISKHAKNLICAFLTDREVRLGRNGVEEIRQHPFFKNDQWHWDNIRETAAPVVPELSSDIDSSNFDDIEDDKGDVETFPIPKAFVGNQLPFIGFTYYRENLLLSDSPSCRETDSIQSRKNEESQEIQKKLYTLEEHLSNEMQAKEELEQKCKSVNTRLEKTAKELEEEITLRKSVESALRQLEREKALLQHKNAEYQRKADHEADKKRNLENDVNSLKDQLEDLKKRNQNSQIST
T1 sequence (Q13464 1-477): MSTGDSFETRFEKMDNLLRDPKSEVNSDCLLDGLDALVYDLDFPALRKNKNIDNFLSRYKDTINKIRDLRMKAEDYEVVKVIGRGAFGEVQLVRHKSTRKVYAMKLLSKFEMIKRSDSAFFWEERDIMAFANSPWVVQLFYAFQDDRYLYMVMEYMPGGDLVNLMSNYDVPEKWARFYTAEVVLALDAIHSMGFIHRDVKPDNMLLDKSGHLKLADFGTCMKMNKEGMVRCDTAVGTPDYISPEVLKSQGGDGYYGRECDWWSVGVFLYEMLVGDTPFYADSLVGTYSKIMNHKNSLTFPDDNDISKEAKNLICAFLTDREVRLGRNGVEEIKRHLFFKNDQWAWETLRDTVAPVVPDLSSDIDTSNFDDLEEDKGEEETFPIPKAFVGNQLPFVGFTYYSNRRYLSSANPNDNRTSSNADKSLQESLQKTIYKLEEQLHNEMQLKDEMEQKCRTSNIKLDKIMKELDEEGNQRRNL

Regarding `CS(=O)(=O)Nc1ccc(NC(=O)c2cccc(Cn3cnc4cc(-c5cn[nH]c5C(F)(F)F)ccc4c3=O)c2)cc1` [Compound 385], the pIC50 in experiment [1] is 6.30 to 7.00; in experiment [2], 7.00 to 8.00.

`Cn1nccc1-c1ccc2c(=O)n(Cc3cccc(C(=O)N[C@H]4CC[C@H](O)CC4)c3)ccc2c1` [Compound 115]: the pIC50 in experiment [1] was 6.30 to 7.00; in experiment [2], 7.00 to 8.00.

As to `N#Cc1cccc(C(CN)n2cnc3cc(-c4ccnc(N)c4)ccc3c2=O)c1` (centres unmarked) [Compound 501], the negative logarithm of the IC50 (pIC50) was less than 6.30 in experiment [1] and 6.30 to 7.00 in experiment [2].

In the case of `Cc1nocc1-c1ccc2c(=O)n(Cc3cccc(C(=O)N[C@H]4CC[C@@H](O)CC4)c3)ccc2c1` [Compound 74], the pIC50 in experiment [1] is 6.30 to 7.00; in experiment [2], 7.00 to 8.00.

`CN1CCC(CNC(=O)c2cccc(Cn3ccc4cc(N5CCOCC5)ccc4c3=O)c2)CC1` [Compound 218]: the pIC50 in experiment [1] is 6.30 to 7.00; in experiment [2], 7.00 to 8.00.

On to `[2H]C([2H])([2H])NC(=O)c1cccc(Cn2ccc3cc(-c4ccnn4C)ccc3c2=O)c1` [Compound 321], for which the pIC50 in experiment [1] is 6.30 to 7.00; in experiment [2] it was 7.00 to 8.00.

As to `Nc1cc(-c2ccc3c(=O)n(Cc4cccc(C(=O)NCC5CCOCC5)c4)cnc3c2)ccn1` [Compound 438], the results for the negative-log IC50 (pIC50) in experiment [1] and in experiment [2] were 7.00 to 7.96 and 7.00 to 8.00, respectively.

In the case of `CNC(=O)c1cccc(Cn2cnc3cc(-c4conc4C)ccc3c2=O)c1` [Compound 411], the negative-log IC50 (pIC50) in experiment [1] was 7.00 to 7.96; in experiment [2], more than 8.00.

Turning to `CNC(=O)c1cc(Cn2cnc3cc(-c4cn[nH]c4C(F)(F)F)ccc3c2=O)ccc1F` [Compound 389], the pIC50 in experiment [1] was 7.00 to 7.96; in experiment [2], 7.00 to 8.00.

`Cc1nocc1-c1ccc2c(=O)n(Cc3cccc(C(=O)NCc4ccc(F)nc4)c3)ccc2c1` [Compound 76]: the pIC50 in experiment [1] is 7.00 to 7.96; in experiment [2] it was more than 8.00.

For `Cc1nocc1-c1ccc2c(=O)n(Cc3cc(F)cc(C(=O)N[C@H]4CC[C@H](O)CC4)c3)ccc2c1` [Compound 139], the pIC50 in experiment [1] and in experiment [2] was 6.30 to 7.00 each time.

Turning to `NCC(c1cccc(Cl)c1)n1cnc2cc(-c3ccnc(F)c3)ccc2c1=O` (centres unmarked) [Compound 492, 3-(2-amino-1-(3-chlorophenyl)ethyl)-7-(2-fluoropyridin-4-yl)quinazolin-4(3H)-one], the results for the pIC50 in experiment [1] and in experiment [2] were 7.00 to 7.96 and 7.00 to 8.00, respectively.

Consider `CN1CCC(CNC(=O)c2cc(F)cc(Cn3ccc4cc(-c5ccnn5C)ccc4c3=O)c2)CC1` [Compound 172], for which the pIC50 was 7.00 to 7.96 in experiment [1] and more than 8.00 in experiment [2].

For the compound `Cc1nocc1-c1ccc2c(=O)n(Cc3cccc(C(=O)Nc4ccc5c(c4)CCNC5)c3)ccc2c1` [Compound 96], the pIC50 in experiment [1] and in experiment [2] was more than 8.00 throughout.

Turning to `CN1CCC(NC(=O)c2cc(F)cc(Cn3ccc4cc(-c5ccnn5C)ccc4c3=O)c2)CC1` [Compound 176], the negative logarithm of the IC50 (pIC50) in experiment [1] was 7.00 to 7.96; in experiment [2] it was 7.00 to 8.00.

`CS(=O)(=O)c1cccc(CNC(=O)c2cccc(Cn3cnc4cc(-c5cn[nH]c5C(F)F)ccc4c3=O)c2)c1` [Compound 398]: the negative logarithm of the IC50 (pIC50) in experiment [1] was 6.30 to 7.00; in experiment [2] it was 7.00 to 8.00.

Consider `Cc1nocc1-c1ccc2c(=O)n(Cc3cc(F)cc(C(=O)NCC4CCN(C)CC4)c3)ccc2c1` [Compound 149], for which the pIC50 in experiment [1] is 7.00 to 7.96; in experiment [2], more than 8.00.

With `[2H]C([2H])([2H])NC(=O)c1cccc(Cn2cnc3cc(-c4cn[nH]c4C(F)(F)F)ccc3c2=O)c1` [Compound 368], the pIC50 in experiment [1] is 7.00 to 7.96; in experiment [2], more than 8.00.

As to `CNC(=O)c1cccc(C(C)n2cc(CCO)c3cc(-c4conc4C)ccc3c2=O)c1` (centres unmarked) [Compound 553], the values for the negative logarithm of the IC50 (pIC50) in experiment [1] and in experiment [2] were 6.30 to 7.00 and 7.00 to 8.00, respectively.

Consider `C[C@H](c1cccc(C(=O)N(C)C)c1)n1cnc2cc(-c3ccnc(N)c3)ccc2c1=O` [Compound 482], for which the pIC50 in experiment [1] and in experiment [2] was less than 6.30 throughout.

In the case of `Cc1nocc1-c1ccc2c(=O)n(Cc3cc(F)cc(NC(=O)c4ccccn4)c3)ccc2c1` [Compound 350], the pIC50 in experiment [1] was 6.30 to 7.00; in experiment [2], 7.00 to 8.00.

For `CNC(=O)c1cccc(Cn2cc(CC(C)O)c3cc(-c4cn[nH]c4C(F)(F)F)ccc3c2=O)c1` (centres unmarked) [Compound 547], the figures for the negative-log IC50 (pIC50) in experiment [1] and in experiment [2] were 7.00 to 7.96 and more than 8.00, respectively.

Take `Cc1nocc1-c1ccc2c(=O)n([C@H](C)c3cccc(C(=O)NCC4CCNCC4)c3)cnc2c1` [Compound 473]: the pIC50 in experiment [1] and in experiment [2] was more than 8.00 throughout.

In the case of `Nc1cc(-c2ccc3c(=O)n(C(CO)c4cccc(Cl)c4)cnc3c2)ccn1` (centres unmarked) [Compound 484], the results for the pIC50 in experiment [1] and in experiment [2] were 6.30 to 7.00 and 7.00 to 8.00, respectively.

Consider `O=C(NCCN1CCOCC1)c1cccc(Cn2ccc3cc(N4CCOCC4)ccc3c2=O)c1` [Compound 216], for which the negative-log IC50 (pIC50) in experiment [1] and in experiment [2] was 6.30 to 7.00 throughout.

Consider `CNC(=O)c1cccc(Cn2ccc3cc(-c4conc4C)ccc3c2=O)c1F` [Compound 314], for which the negative logarithm of the IC50 (pIC50) in experiment [1] was 6.30 to 7.00; in experiment [2], 7.00 to 8.00.

Turning to `NCC(c1cccc(C(N)=O)c1)n1cnc2cc(-c3cn[nH]c3C(F)(F)F)ccc2c1=O` (centres unmarked) [Compound 507], the values for the negative-log IC50 (pIC50) in experiment [1] and in experiment [2] were less than 6.30 and 6.30 to 7.00, respectively.

Consider `COc1cccc(Cn2ccc3cc(-c4ccnn4C)ccc3c2=O)c1` [Compound 11], for which the pIC50 in experiment [1] was 7.00 to 7.96; in experiment [2], more than 8.00.

With `C[C@H](c1cccc(C(=O)NC2CCN(C)CC2)c1)n1cnc2cc(-c3cn[nH]c3Cl)ccc2c1=O` [Compound 464], the negative logarithm of the IC50 (pIC50) in experiment [1] and in experiment [2] was more than 8.00 each time.

Turning to `O=c1c2ccc(-c3cn[nH]c3)cc2ccn1Cc1cccc(O)c1` [Compound 3, 2-(3-hydroxybenzyl)-6-(1H-pyrazol-4-yl)isoquinolin-1(2H)-one], the figures for the pIC50 in experiment [1] and in experiment [2] were 6.30 to 7.00 and 7.00 to 8.00, respectively.

With `CNC(=O)c1cccc(C(C)n2ccc3cc(-c4ccnn4C)ccc3c2=O)c1` (centres unmarked) [Compound 322], the results for the pIC50 in experiment [1] and in experiment [2] were 6.30 to 7.00 and 7.00 to 8.00, respectively.

On to `CNC(=O)c1cccc(Cn2ccc3cc(-c4cn[nH]c4Br)ccc3c2=O)c1` [Compound 512], for which the negative logarithm of the IC50 (pIC50) is 7.00 to 7.96 in experiment [1] and more than 8.00 in experiment [2].

Regarding `O=C(NC1CCNCC1)c1cccc(Cn2cnc3cc(-c4cn[nH]c4Cl)ccc3c2=O)c1` [Compound 409], the pIC50 in experiment [1] and in experiment [2] was more than 8.00 throughout.

Regarding `CNC(=O)c1cc(F)cc(Cn2cc(Cl)c3cc(-c4conc4C)ccc3c2=O)c1` [Compound 318], the pIC50 in experiment [1] is 7.00 to 7.96; in experiment [2], more than 8.00.

As to `CS(=O)(=O)Nc1ccc(CNC(=O)c2cccc(Cn3cnc4cc(-c5cn[nH]c5C(F)(F)F)ccc4c3=O)c2)cc1` [Compound 373], the pIC50 in experiment [1] was 7.00 to 7.96; in experiment [2] it was more than 8.00.

On to `Cc1nocc1-c1ccc2c(=O)n(Cc3cccc(C(=O)NC4CCNCC4)c3)ccc2c1` [Compound 85], for which the negative logarithm of the IC50 (pIC50) is 7.00 to 7.96 in experiment [1] and more than 8.00 in experiment [2].

On to `CN1CCC(NC(=O)c2cc(F)cc(Cn3ccc4cc(-c5c[nH]nc5C(F)(F)F)ncc4c3=O)c2)CC1` [Compound 259], for which the pIC50 in experiment [1] was 7.00 to 7.96; in experiment [2], more than 8.00.

In the case of `O=C(N[C@H]1CC[C@@H](O)CC1)c1cccc(Cn2cnc3cc(-c4cn[nH]c4Cl)ccc3c2=O)c1` [Compound 407], the values for the pIC50 in experiment [1] and in experiment [2] were 7.00 to 7.96 and more than 8.00, respectively.

Turning to `Cc1nocc1-c1ccc2c(=O)n(Cc3cc(F)cc(C(=O)NCCN4CCOCC4)c3)ccc2c1` [Compound 143], the results for the pIC50 in experiment [1] and in experiment [2] were 6.30 to 7.00 and 7.00 to 8.00, respectively.

Consider `CNC(=O)c1cc(F)cc(Cn2cnc3cc(-c4conc4C)ccc3c2=O)c1` [Compound 422], for which the pIC50 was 7.00 to 7.96 in experiment [1] and more than 8.00 in experiment [2].

With `Cc1nocc1-c1ccc2c(=O)n(Cc3cc(F)cc(C(=O)N[C@H]4C[C@H](O)C4)c3)ccc2c1` [Compound 138], the pIC50 in experiment [1] was 6.30 to 7.00; in experiment [2], 7.00 to 8.00.

On to `Cc1nocc1-c1ccc2c(=O)n(Cc3cccc(C(=O)NCC4COC4)c3)cnc2c1` [Compound 415], for which the pIC50 was 7.00 to 7.96 in experiment [1] and more than 8.00 in experiment [2].

In the case of `CNC(=O)c1cccc(Cn2cnc3cc(-c4cn[nH]c4)ccc3c2=O)c1` [Compound 366, N-methyl-3-((4-oxo-7-(1H-pyrazol-4-yl)quinazolin-3(4H)-yl)methyl)benzamide], the figures for the negative-log IC50 (pIC50) in experiment [1] and in experiment [2] were 7.00 to 7.96 and more than 8.00, respectively.

For the compound `O=C(NC1CCNCC1)c1cc(F)cc(Cn2ccc3cc(-c4c[nH]nc4C(F)(F)F)ccc3c2=O)c1` [Compound 131], the negative-log IC50 (pIC50) in experiment [1] and in experiment [2] was more than 8.00 throughout.

For the compound `Cc1nocc1-c1ccc2c(=O)n([C@H](C)c3cccc(C(=O)NCC(F)(F)F)c3)cnc2c1` [Compound 475], the pIC50 was 7.00 to 7.96 in experiment [1] and more than 8.00 in experiment [2].

In the case of `COc1cccc(Cn2cnc3cc(-c4ccncc4)ccc3c2=O)c1` [Compound 363], the pIC50 was 7.00 to 7.96 in experiment [1] and 7.00 to 8.00 in experiment [2].

(Values after patent US12064426B2, “Selective inhibitors of ROCK1 and ROCK2 protein kinases and uses thereof” (GENOSCO Inc., priority 2021, dated 2024).)
